Patent US6008240A, “2-(1H-4(5)-imidazoyl) cyclopropyl derivatives” (Gliatech, Inc., priority 1997, dated 1999)
Counter-ions that a name gives are not always drawn.

System: not given
Test: not given
Settings: intraventricular; rabbits; cited from earlier work

Q: Which “arousal EEG pattern” value does the source give for NCCc1c[nH]cn1 [histamine] here?
A: induces the appearances of an arousal EEG pattern

System: not given
Test: not given
Settings: intraventricular; saline and pentobarbital-treated rats; cited from earlier work

Q: Which “spontaneous locomotor activity, grooming and exploratory behavior” value does the source give for NCCc1c[nH]cn1 [histamine] here?
A: increased spontaneous locomotor activity, grooming and exploratory behavior

Biological target: T1, Histamine H3 Receptor (Rattus norvegicus, UniProt Q9QYN8)
T1 construct: from tissue; host or cells: rat cerebral cortex membranes
Test: In Vitro Histamine H3 Receptor Binding Analysis ([3H]-Nα-methylhistamine, rat cortical membranes)
Settings: not given
Method: Histamine H3 receptor affinity was determined in rat cortical membranes using the H3 selective agonist ligand, [^3 H]-N^α -methylhistamine (78.9 Ci/mmole, DuPont NEN Research Products, Boston, Mass.) according to the method of West et al., (1990) Mol. Pharmacol. 38: 610-613 with modifications. Briefly, animals were sacrificed by decapitation and the cerebral cortex was rapidly removed. Rat cortices were mechanically homogenized with an Omni 1000 motor driven homogenizer in 10 volumes (wt/vol) of Krebs-Ringers Hepes buffer (pH 7.4) containing the following protease inhibitors; EDTA (10 mmol), PMSF (0.1 mM), chymostatin (0.2 mg/50 mL) and leupeptin (0.2 mg/50 mL). The homogenate was centrifuged in a Sorvall at ~40,000 x g for 30 min. The pellet was resuspended by mechanical homogenization in 25 mL water and lysed on ice for 30 min. The homogenate was recentrifuged and the membrane lysis was repeated. The membranes were recentrifuged and the final pellet was resuspended in 14 volumes of water to give approximately 200 μg protein/100 μl final concentration. The suspension was stored at -80° C. prior to use. Protein concentrations were determined by Coomassie Plus Protein Assay (Pierce, Rockford, Ill.).
Nonspecific binding (NSB) was accounted for by the inclusion of thioperamide (10 μM). Samples were incubated for 40 minutes at 25° C. The samples were filtered through glass fiber strips, pre-washed with 0.3% polyethyleneimine, using a Brandell cell harvester. The filters were rapidly washed three times with 4 ml of 25 mM Tris buffer containing 145 mM NaCl (pH 7.4, 4° C.). Filters were transferred to polyethylene minivials and counted in 3.5 ml of scintillation fluid (Ecolume, ICN Biomedicals, Inc.). Using this procedure, the non-specific binding was less than 10% of the total binding and the binding to the glass fiber filters was negligible. Saturation and competition experiments were analyzed with the ReceptorFit saturation and competition curve fitting programs (Lundon Software, Inc., Cleveland, Ohio).

T1 sequence (Q9QYN8 whole entry): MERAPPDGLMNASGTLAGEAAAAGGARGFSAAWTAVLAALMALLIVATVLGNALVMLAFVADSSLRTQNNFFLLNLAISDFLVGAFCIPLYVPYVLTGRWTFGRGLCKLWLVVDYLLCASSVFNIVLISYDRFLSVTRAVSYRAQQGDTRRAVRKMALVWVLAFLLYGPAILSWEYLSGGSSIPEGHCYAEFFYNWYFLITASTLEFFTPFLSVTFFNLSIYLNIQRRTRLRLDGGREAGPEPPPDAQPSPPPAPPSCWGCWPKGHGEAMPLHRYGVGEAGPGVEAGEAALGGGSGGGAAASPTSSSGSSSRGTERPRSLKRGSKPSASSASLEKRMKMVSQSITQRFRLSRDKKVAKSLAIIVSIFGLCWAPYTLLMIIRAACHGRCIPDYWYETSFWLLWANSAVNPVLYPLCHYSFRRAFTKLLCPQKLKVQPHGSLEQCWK

Q: Which Ki does the source give for C(#C[C@@H]1C[C@H]1c1c[nH]cn1)CCC1CCCC1 (racemic) [Example 54, (±)-trans-4-(2-(4-Cyclopentylbut-1-ynyl)cyclopropyl)imidazole] here?
A: 1.43 ± 0.33 nM

Q: With N[C@@H](CC1CCCCC1)C(=O)N[C@@H]1C[C@H]1c1cnc[nH]1 [Example 12, (1R,2R)-trans-2-(S)-amino-3-cyclohexyl-N-(2-imidazol-4-ylcyclopropyl)propanamide] as the compound, how does the Ki read?
A: 1.85 ± 0.5 nM

Q: Which Ki does the source give for C(=C\[C@H]1C[C@@H]1c1c[nH]cn1)/CCC1CCCCC1 [Example 25, (1S, 2S)-trans-4-(2-(4-Cyclohexylbut-trans-1-enyl)cyclopropyl)imidazole] here?
A: 56 ± 9 nM

Q: Which Ki does the source give for O=C(N[C@H]1C[C@@H]1c1c[nH]cn1)[C@@H]1CC2CCCCC2N1 (stereo partly drawn) [Example 15, (2S, 3S)-trans-(7-Azabicyclo[4.3.0]non-(S)-8-yl)-N-(2-imidazol-4-ylcyclopropyl)formamide] here?
A: 37 ± 4 nM

Q: With O=C(N[C@@H]1C[C@H]1c1c[nH]cn1)OCc1ccccc1 (relative stereo) [Example 26, (±)-trans-N-(2-imidazol-4-ylcyclopropyl)(phenylmethoxy)formamide] as the compound, how does the Ki read?
A: 5.8 ± 0.4 nM

Q: Which Ki does the source give for C(=C/[C@@H]1C[C@H]1c1c[nH]cn1)/CCC1CCCCC1 [Example 23, (1R, 2R)-trans-4-(2-(4-Cyclohexylbut-cis-1-enyl)cyclopropyl)imidazole] here?
A: 6.2 ± 0.8 nM

Q: For O=C(N[C@@H]1C[C@H]1c1cnc[nH]1)OCc1cccc(Br)c1 (relative stereo) [Example 51, (±)-trans-((3-Bromophenyl)methoxy)-N-(2-imidazol-4-ylcyclopropyl) formamide], which Ki is on record?
A: 9.9 ± 0.35 nM

Q: Which Ki does the source give for O=C(N[C@@H]1C[C@H]1c1c[nH]cn1)[C@@H]1CC2CCCCC2N1 (stereo partly drawn) [Example 14, (2R, 3R)-trans-(7-Azabicyclo[4.3.0]non-(S)-8-yl)-N-(2-imidazol-4-ylcyclopropyl)formamide] here?
A: 8.5 ± 0.7 nM

Q: For CC(C)CCC#C[C@@H]1C[C@H]1c1cnc[nH]1 (relative stereo) [Example 40, (±)-4-(2-(5-Methylhex-1-ynyl)cyclopropyl)imidazole], which Ki is on record?
A: 6.5 ± 1.5 nM

Q: Which Ki does the source give for C(#C[C@@H]1C[C@H]1c1cnc[nH]1)CCCCc1ccccc1 (relative stereo) [Example 41, (±)-4-(2-(6-Phenylhex-1-ynyl)cyclopropyl)imidazole] here?
A: 16 ± 0.6 nM

Q: Which Ki does the source give for O=C(NCC1CCCCC1)[C@@H]1C[C@H]1c1c[nH]cn1 (relative stereo) [Example 2, (±)-trans-N-(cyclohexylmethyl)(2-imidazol-4-ylcyclopropyl)formamide] here?
A: 37 ± 4 nM

Q: Which Ki does the source give for O=C(NCc1ccccc1)[C@@H]1C[C@H]1c1c[nH]cn1 (relative stereo) [Example 1, N-(1-benzyl)-3-[(1H-imidazol-4-yl)]-(2R,3R)-trans-cyclopropanamide and N-(1-benzyl)-3-[(1H-imidazol-4-yl)]-(2S,3S)-trans-cyclopropanamide hydrochloride] here?
A: 53 ± 2 nM

Q: With C[C@@H](NC(=O)[C@@H]1C[C@H]1c1cnc[nH]1)C1CCCCC1 (mixture of isomers) [Example 6, N-[(R)-1-cyclohexylethyl]-3-(1H-imidazol-4-yl)-trans-(2R,3R)-cyclopropanamide and N-[(R)-1-cyclohexylethyl]-3-(1H-imidazol-4-yl)-trans-(2S,3S)-cyclopropanamide hydrochloride] as the compound, how does the Ki read?
A: 70 ± 8.6 nM

Q: Which Ki does the source give for O=C(N[C@@H]1C[C@H]1c1cnc[nH]1)OCc1ccccc1Br (relative stereo) [Example 50, (±)-trans-(2-Bromophenyl)methoxy)-N-(2-imidazol-4-ylcyclopropyl) formamide] here?
A: 8 ± 0.43 nM

Q: For N[C@@H](CC1CCCCC1)C(=O)N[C@H]1C[C@@H]1c1cnc[nH]1 [Example 13, (1S,2S)-trans-2-(S)-amino-3-cyclohexyl-N-(2-imidazol-4-ylcyclopropyl)propanamide], which Ki is on record?
A: 21.5 ± 1.8 nM

Q: Which Ki does the source give for COC(=O)/C=C\[C@@H]1C[C@H]1c1cnc[nH]1 (relative stereo) [Example 53, (±) trans-Methyl-3-(2-imidazol-4-ylcyclopropyl)prop-2-enoate] here?
A: 21.6 ± 3.6 nM

Q: Which Ki does the source give for O=C(NCCCC1CCCCC1)[C@H]1C[C@@H]1c1cnc[nH]1 [Example 30] here?
A: 42 ± 7 nM

Same assay, conditions: rat cortical membranes; 0.8-1.2 nM [3H]-Nα-methylhistamine; 40 minutes at 25° C.; pH 7.4; read-out: H3 Receptor Ki

Q: With C[C@H](NC(=O)[C@@H]1C[C@H]1c1cnc[nH]1)C1CCCCC1 (mixture of isomers) [Example 7, N-[(S)-1-cyclohexylethyl]-3-(1H-imidazol-4-yl)- trans-(2R,3R)-cyclopropanamide and N-[(S)-1-cyclohexylethyl]-3-(1H-imidazol-4-yl)-trans-(2S,3S)-cyclopropanamide hydrochloride] as the compound, how does the Ki read?
A: 146 ± 13 nM

Q: For O=C(NCCc1c[nH]cn1)[C@@H]1C[C@H]1c1c[nH]cn1 (relative stereo) [Example 34, (±)-trans-(2-imidazol-4-ylcyclopropyl)-N-(2-imidazol-4-ylethyl) formamide], which Ki is on record?
A: 227 ± 26 nM

Q: With O=C(NCCCc1ccccc1)[C@@H]1C[C@H]1c1c[nH]cn1 (relative stereo) [Example 33, (±)-trans-(2-imidazol-4-ylcyclopropyl)-N-(3-phenylpropyl) formamide] as the compound, how does the Ki read?
A: 197 ± 23 nM

Q: With O=C(NCCc1c[nH]c2ccccc12)[C@@H]1C[C@H]1c1c[nH]cn1 (relative stereo) [Example 35, (±)-trans-(2-imidazol-4-ylcyclopropyl)-N-(2-indol-3-ylethyl) formamide] as the compound, how does the Ki read?
A: 441 ± 73 nM

Q: Which Ki does the source give for O=C(NCCc1ccccc1)[C@@H]1C[C@H]1c1c[nH]cn1 (relative stereo) [Example 9, (±)-trans-(2-imidazole-4-ylcyclopropyl)-N-(2-phenylethyl)formamide] here?
A: 163 ± 19 nM

Q: With CC(C)(C)CCC#C[C@@H]1C[C@H]1c1c[nH]cn1 [Example 39, (1R,2R)-4-(2-(5,5-Dimethylhex-1-ynyl)cyclopropyl)imidazole] as the compound, how does the Ki read?
A: 0.15 ± 0.04 nM

Q: For CC(C)(C)CCC#C[C@@H]1C[C@H]1c1c[nH]cn1 (relative stereo) [Example 38, (±)-4-(2-(5,5-Dimethylhex-1-ynyl)cyclopropyl)imidazole], which Ki is on record?
A: 0.33 ± 0.1 nM

Q: With O=C(NCC12CC3CC(CC(C3)C1)C2)[C@@H]1C[C@H]1c1c[nH]cn1 (relative stereo) [Example 8, (±)-trans-N-(adamantanylmethyl) (2-imidazol-4-ylcyclopropyl)formamide] as the compound, how does the Ki read?
A: 55 ± 6 nM

Q: For OC(CCCC1CCCCC1)[C@@H]1C[C@H]1c1c[nH]cn1 (mixture of isomers) [Example 19, (±)-trans4-Cyclohexyl-1-(2-imidazol-4-ylcyclopropyl)butan-1-ol], which Ki is on record?
A: 160 ± 9 nM

Q: For O=C(NCC(O)CC1CCCCC1)[C@@H]1C[C@H]1c1c[nH]cn1 (relative stereo) [Example 36, (±)-trans-N-(3-Cyclohexyl-2-(±)-hydroxypropyl)(2-imidazol-4-ylcyclopropyl)formamide], which Ki is on record?
A: 145 nM

Q: With O=C(NCCC1CCCCC1)C1CC1c1c[nH]cn1 [Example 27, (1S, 2S)-trans-N-(2-Cyclohexylethyl)(2-imidazol-4-ylcyclopropyl)formamide] as the compound, how does the Ki read?
A: 8.8 ± 0.1 nM

Q: Which Ki does the source give for O=C(NCC1CCCCC1)[C@@H]1C[C@H]1c1c[nH]cn1 [Example 2b] here?
A: 176 ± 9 nM

Q: Which Ki does the source give for N[C@@H](Cc1ccc(Br)cc1)C(=O)N[C@@H]1C[C@H]1c1c[nH]cn1 [Example 45] here?
A: 9.4 ± 1.1 nM

Q: For O=C(N[C@@H]1C[C@H]1c1cnc[nH]1)OCCCc1ccccc1 (relative stereo) [Example 47, (±)-trans-N-(2-imidazol-4-ylcyclopropyl)(3-phenylpropoxy)formamide], which Ki is on record?
A: 41 ± 3.4 nM

Q: With CN(CC1CCCCC1)C(=O)[C@@H]1C[C@H]1c1c[nH]cn1 (racemic) [Example 11, (±)-trans-N-(cyclohexylmethyl)(2-imidazol-4-ylcyclopropyl)-N-methylformamide] as the compound, how does the Ki read?
A: 134 ± 1 nM

Q: Which Ki does the source give for CC1CCCCN1CCCNC(=O)[C@@H]1C[C@H]1c1c[nH]cn1 (relative stereo) [Example 3, (±)-trans-(2-imidazol-4-ylcyclopropyl)-N-(3-((±)-2-methylpiperidyl)propyl)formamide] here?
A: 659 ± 52 nM

Same assay, conditions: read-out: H3 Receptor Ki; rat cortical membranes; 0.8-1.2 nM [3H]-Nα-methylhistamine; 40 minutes at 25° C.; pH 7.4

Q: Which Ki does the source give for N[C@H](/C=C/[C@@H]1C[C@H]1c1c[nH]cn1)CC1CCCCC1 [Example 20, (1R,2R)-trans-1-Cyclohexyl-4-(2-imidazol-4-ylcyclopropyl)but-trans-3-en-2(S)-ylamine] here?
A: 0.37 ± 0.2 nM

Q: For O=C(NCC1CCCCC1)[C@H]1C[C@@H]1c1c[nH]cn1 [Example 2a], which Ki is on record?
A: 23 ± 1 nM

Q: Which Ki does the source give for N[C@H](/C=C\[C@@H]1C[C@H]1c1c[nH]cn1)CC1CCCCC1 [Example 21, (1R,2R)-trans-1-Cyclohexyl-4-(2-imidazol-4-ylcyclopropyl)but-cis-3-en-2(S)-ylamine] here?
A: 97.7 ± 28 nM
